In this assay the test system is B6C3F1 mice, B16 melanoma ip, median survival T/C. Put plainly: NCI In Vivo Anticancer Drug Screen. Data for tumor model B16 Melanoma (intraperitoneal) in B6C3F1 mice. The note with it: endpoint: median survival time, higher = longer survival. The method, then: The antitumor activity of compounds was measured in mice bearing transplantable tumors. Survival or tumor size were measured and the results are expressed as the measurement made in the treated group (T) divided by the measurement made in the vehicle treated control group (C). The tumor model used in this assay is B16 Melanoma (intraperitoneal) in B6C3F1 mice

Setting [1] is: dose: 12.5 mg/kg/injection, schedule: Q01DX009 (ip), vehicle: saline with Tween-80.
Where [2] appears, read: dose: 25.0 mg/kg/injection, schedule: Q01DX009 (ip), vehicle: saline with Tween-80.
Where [3] appears, read: dose: 50.0 mg/kg/injection, schedule: Q01DX009 (ip), vehicle: saline with Tween-80.
The mark [4] stands for this setting: dose: 100.0 mg/kg/injection, schedule: Q01DX009 (ip), vehicle: saline with Tween-80.
Where [5] appears, read: dose: 50.0 mg/kg/injection, schedule: Q01DX009 (ip), vehicle: saline.
[6] abbreviates: dose: 6.25 mg/kg/injection, schedule: Q01DX009 (ip), vehicle: saline.
Where [7] appears, read: dose: 12.5 mg/kg/injection, schedule: Q01DX009 (ip), vehicle: saline.
Where [8] appears, read: dose: 25.0 mg/kg/injection, schedule: Q01DX009 (ip), vehicle: saline.

The structures appear in SMILES notation. Values joined by “and” are separate entries in the source; they are usually repeats but may differ in a detail not shown here. Equal values may be shown once. Toxic doses and inconclusive results are not listed.

Consider `CC(=O)Oc1c[nH]c(=O)[nH]c1=O`, for which the T/C by setting is: (dose: 12.5 mg/kg/injection, schedule: Q01DX009 (ip), vehicle: distilled water + Tween-80) 99 % of control; under setting [1], 97 % of control; (dose: 25.0 mg/kg/injection, schedule: Q01DX009 (ip), vehicle: distilled water + Tween-80) 103 % of control; under setting [2], 98 % of control; (dose: 50.0 mg/kg/injection, schedule: Q01DX009 (ip), vehicle: distilled water + Tween-80) 103 % of control; under setting [3], 98 % of control. Further, the T/C reads like this: (dose: 100.0 mg/kg/injection, schedule: Q01DX009 (ip), vehicle: distilled water + Tween-80) 102 % of control; under setting [4], 90 % of control; (dose: 200.0 mg/kg/injection, schedule: Q01DX009 (ip), vehicle: distilled water + Tween-80) 98 % of control; (dose: 200.0 mg/kg/injection, schedule: Q01DX009 (ip), vehicle: saline with Tween-80) 95 % of control; (dose: 400.0 mg/kg/injection, schedule: Q01DX009 (ip), vehicle: distilled water + Tween-80) 92 % of control; (dose: 400.0 mg/kg/injection, schedule: Q01DX009 (ip), vehicle: saline with Tween-80) 98 % of control.
Consider `CC[C@@H](C)[C@H]([C@H](CC(=O)N1CCC[C@@H]1[C@@H](OC)[C@H](C)C(=O)N[C@H](Cc1ccccc1)c1nccs1)OC)N(C)C(=O)[C@H](NC(=O)[C@@H](C(C)C)N(C)C)C(C)C`, for which the T/C is, setting by setting: (dose: 2.4 micrograms/kg/injection, schedule: Q01DX009 (ip), vehicle: saline + alcohol) 171 % of control; (dose: 4.0 micrograms/kg/injection, schedule: Q01DX009 (ip), vehicle: saline + alcohol) 205 % of control; (dose: 6.67 micrograms/kg/injection, schedule: Q01DX009 (ip), vehicle: saline + alcohol) 182 % of control; (dose: 11.11 micrograms/kg/injection, schedule: Q01DX009 (ip), vehicle: saline + alcohol) 238 % of control.
Consider `N=c1ccn2c(n1)OC1C(O)C(CO)OC12` (centres undefined), for which the T/C runs as follows: (dose: 18.75 mg/kg/injection, schedule: Q01DX009 (ip), vehicle: saline) 100 % of control; (dose: 37.5 mg/kg/injection, schedule: Q01DX009 (ip), vehicle: saline) 118 % of control and 104 % of control; (dose: 75.0 mg/kg/injection, schedule: Q01DX009 (ip), vehicle: saline) 100 % of control and 106 % of control (2×); (dose: 150.0 mg/kg/injection, schedule: Q01DX009 (ip), vehicle: saline) 114 % of control and 106 % of control (2×); (dose: 300.0 mg/kg/injection, schedule: Q01DX009 (ip), vehicle: saline) 112 % of control and 121 % of control and 106 % of control.
In the case of `Cc1ncc(CO)c(CO)c1O`, the T/C runs as follows: (dose: 50.0 mg/kg/injection, schedule: Q03HX009 (ip), vehicle: suspension in saline) 106 % of control; (dose: 100.0 mg/kg/injection, schedule: Q03HX009 (ip), vehicle: suspension in saline) 102 % of control; (dose: 200.0 mg/kg/injection, schedule: Q03HX009 (ip), vehicle: suspension in saline) 102 % of control; (dose: 400.0 mg/kg/injection, schedule: Q03HX009 (ip), vehicle: suspension in saline) 98 % of control; (dose: 800.0 mg/kg/injection, schedule: Q03HX009 (ip), vehicle: suspension in saline) 96 % of control.
Regarding `CCOC(=O)C(CC(C)C)NC(=O)C(Cc1ccc(N(CCCl)CCCl)cc1)NC(C)=O` (centres undefined), the T/C (dose: 8.0 mg/kg/injection, schedule: Q01DX009 (ip), vehicle: saline with Tween-80) is 105 % of control; the T/C (dose: 16.0 mg/kg/injection, schedule: Q01DX009 (ip), vehicle: saline with Tween-80) is 102 % of control; the T/C (dose: 64.0 mg/kg/injection, schedule: Q01DX009 (ip), vehicle: saline with Tween-80) is 160 % of control.
As for `CC(C)=CC(=O)OC1C2C(C)=CC(=O)C(O)C2(C)C2C3(O)OCC24C(CC(=O)OC14)C(C)C3O` (centres undefined), the T/C by setting is: (dose: 0.25 mg/kg/injection, schedule: Q01DX009 (ip), vehicle: distilled water + Tween-80) 163 % of control and 168 % of control; (dose: 0.5 mg/kg/injection, schedule: Q01DX009 (ip), vehicle: distilled water + Tween-80) 150 % of control and 160 % of control and 168 % of control.
On to `NC=NCC(=O)O`, for which the T/C under setting [5] was 108 % of control; the T/C (dose: 100.0 mg/kg/injection, schedule: Q01DX009 (ip), vehicle: saline) was 105 % of control; the T/C (dose: 200.0 mg/kg/injection, schedule: Q01DX009 (ip), vehicle: saline) is 97 % of control.
Consider `C=C1C(=O)OC2/C=C(\C)CC/C=C(/C)CC(OC(=O)/C(=C/CO)CO)C12` (centres undefined), for which the T/C by setting is: (dose: 10.0 mg/kg/injection, schedule: Q01DX009 (ip), vehicle: Klucel (hydroxypropylcellulose) (HPC)) 106 % of control; (dose: 20.0 mg/kg/injection, schedule: Q01DX009 (ip), vehicle: Klucel (hydroxypropylcellulose) (HPC)) 98 % of control; (dose: 40.0 mg/kg/injection, schedule: Q01DX009 (ip), vehicle: Klucel (hydroxypropylcellulose) (HPC)) 96 % of control.
In the case of `CC(C)(C)OC(=O)NCC(=O)ON1C(=O)CCC1=O`, the T/C reads like this: under setting [3], 100 % of control; under setting [4], 91 % of control.
With `[Cl][Mn][Cl]`, the T/C by setting is: (dose: 2.0 mg/kg/injection, schedule: Q01DX009 (ip), vehicle: saline) 115 % of control and 107 % of control; (dose: 4.0 mg/kg/injection, schedule: Q01DX009 (ip), vehicle: saline) 96 % of control and 103 % of control and 106 % of control; (dose: 8.0 mg/kg/injection, schedule: Q01DX009 (ip), vehicle: saline) 112 % of control and 98 % of control; (dose: 16.0 mg/kg/injection, schedule: Q01DX009 (ip), vehicle: saline) 104 % of control; (dose: 32.0 mg/kg/injection, schedule: Q01DX009 (ip), vehicle: saline) 155 % of control; (dose: 64.0 mg/kg/injection, schedule: Q01DX009 (ip), vehicle: saline) 152 % of control and 160 % of control.
Turning to `O=C(NO)c1cc(O)c(O)c(O)c1`, the T/C runs as follows: (dose: 25.0 mg/kg/injection, schedule: Q01DX009 (ip), vehicle: water) 100 % of control; (dose: 50.0 mg/kg/injection, schedule: Q01DX009 (ip), vehicle: water) 105 % of control; (dose: 100.0 mg/kg/injection, schedule: Q01DX009 (ip), vehicle: water) 114 % of control; (dose: 200.0 mg/kg/injection, schedule: Q01DX009 (ip), vehicle: water) 118 % of control.
Turning to `O=C(O)CNC(=O)CNC(=O)CNC(=O)CNC(=O)CNC(=O)OCc1ccccc1`, the T/C by setting is: (dose: 100.0 mg/kg/injection, schedule: Q01DX009 (ip), vehicle: Klucel (hydroxypropylcellulose) (HPC)) 111 % of control; (dose: 200.0 mg/kg/injection, schedule: Q01DX009 (ip), vehicle: Klucel (hydroxypropylcellulose) (HPC)) 96 % of control; (dose: 400.0 mg/kg/injection, schedule: Q01DX009 (ip), vehicle: Klucel (hydroxypropylcellulose) (HPC)) 97 % of control.
As for `NCCSC(C[N+](=O)[O-])c1ccccc1Cl` (centres undefined), the T/C under setting [6] is 103 % of control, the T/C under setting [7] was 114 % of control and the T/C under setting [8] was 93 % of control.
Turning to `CCCCCCCC(=O)[O][Hg][CH2]C1COC([CH2][Hg][O]C(=O)CCCCCCC)CO1` (centres undefined), the T/C reads like this: (dose: 1.56 mg/kg/injection, schedule: Q01DX009 (ip), vehicle: saline with Tween-80) 95 % of control and 102 % of control; (dose: 3.12 mg/kg/injection, schedule: Q01DX009 (ip), vehicle: saline with Tween-80) 96 % of control and 103 % of control; (dose: 6.25 mg/kg/injection, schedule: Q01DX009 (ip), vehicle: saline with Tween-80) 94 % of control and 101 % of control; under setting [1], 93 % of control and 97 % of control; under setting [2], 91 % of control.
`COc1cc2cc(c1Cl)N1CCC(C)(O)C(=O)NC(C)C(=O)OC(CC1=O)C1(C)OC1C(C)C1CC(O)(NC(=O)O1)C(OC)/C=C\C=C(\C)C2OC` (centres undefined): the T/C is, setting by setting: (dose: 8.0 micrograms/kg/injection, schedule: Q01DX009 (ip), vehicle: distilled water + alcohol) 160 % of control; (dose: 16.0 micrograms/kg/injection, schedule: Q01DX009 (ip), vehicle: distilled water + alcohol) 162 % of control; (dose: 32.0 micrograms/kg/injection, schedule: Q01DX009 (ip), vehicle: distilled water + alcohol) 178 % of control.
As to `NCCCNCCCCNC(=O)C(O)NC(=O)CCCCCCN=C(N)N` (centres undefined), the T/C runs as follows: under setting [6], 108 % of control; under setting [7], 95 % of control.
Regarding `O=C(O)CC1C(=O)OC2C3COC(=O)c4cc(O)c(O)c(O)c4-c4c(cc(O)c(O)c4O)C(=O)OC2C(OC(=O)c2cc(O)c(O)c4c2C1C(O)C(=O)O4)C(OC(=O)c1cc(O)c(O)c(O)c1)O3` (centres undefined), the T/C under setting [6] was 94 % of control, the T/C under setting [7] is 99 % of control, the T/C under setting [8] is 100 % of control and the T/C under setting [5] was 88 % of control.

The values above are taken from PubChem BioAssay AID200 (DTP/NCI, 2004).
